Source: patent publication US20190211020A1 (Agency for Science, Technology and Research, priority 2012, published 2019)
Where two headings read alike, the source gives them in different places. Blank lines part the entries; values can stand above or below the compound they belong to.

Tests used:
[1] = Pharmacokinetics assays (plasma and brain); format: in vivo; parameters: AUC(0-t) / AUC(0-inf): concentration or dose not given beside the values; settings: for AUC(0-t): read-out: Plasma AUC last; for Cmax: species, dose and route not given; for Plasma/Brain Ratio: in vivo
[2] = test system: eIF4E Ser209 phosphorylation in Hela cells; experiment: MNK cell-based assay (AlphaScreen SureFire, eIF4E Ser209 phosphorylation); settings: Homo sapiens, read-out: IC50 Hela
Method in brief: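 Hela cells (30,000/well) exposed to test compound in serum-free medium for 2 h at 37 °C, then lysed. Phospho-Ser209 eIF4E quantified by AlphaScreen SureFire; IC50 obtained by non-linear regression of signal versus log compound concentration.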

[3] = brain, read-out: Brain T1/2 (converted)
[4] = plasma, read-out: Plasma T1/2 (converted)
[5] = eIF4E Ser209 phosphorylation, Hela cells, 2 hours

Structure (SMILES): CN1CCN(C(=O)c2ccc(-c3cn4c(-c5ccc(C#N)cc5)cnc4cn3)cc2)CC1 [Entry 1]
Brain AUC inf ([1]; brain): 625 ng·h/g
Brain AUC last ([1]; brain): 520 ng·h/g
Brain Cmax ([1]; brain): 290 ng/g
half-life [1, 3]: 1.39 h
Tmax ([1]; brain, read-out: Brain Tmax): 0.5 h
AUC(0-inf) ([1]; plasma): 7440 ng·h/mL
AUC(0-t) ([1]; plasma): 7420 ng·h/mL
half-life [1, 4]: 3.02 h
Tmax ([1]; plasma, read-out: Plasma Tmax): 0.25 h
Cmax ([1]; plasma): 2670 ng/mL

Structure (SMILES): CN(C)C1CCN(C(=O)c2ccc(-c3cn4c(-c5ccc(C#N)cc5)cnc4cn3)cc2)CC1 [Entry 2]
Brain AUC inf ([1]; brain): 99 ng·h/g
Brain AUC last ([1]; brain): 71 ng·h/g
Brain Cmax ([1]; brain): 14.6 ng/g
half-life [1, 3]: 4.11 h
Tmax ([1]; brain, read-out: Brain Tmax): 0.25 h
Plasma/Brain Ratio [1]: 0.13
AUC(0-inf) ([1]; plasma): 536 ng·h/mL
AUC(0-t) ([1]; plasma): 527 ng·h/mL
half-life [1, 4]: 2.06 h
Tmax ([1]; plasma, read-out: Plasma Tmax): 0.25 h
Cmax ([1]; plasma): 227 ng/mL

Structure (SMILES): CN1CCN(C(=O)c2ccc(-c3ccc4ncc(-c5ccc(C#N)cc5)n4c3)cc2)CC1=O [Entry 3]
Brain AUC inf ([1]; brain): 77 ng·h/g
Brain AUC last ([1]; brain): 59 ng·h/g
Brain Cmax ([1]; brain): 77.78 ng/g
half-life [1, 3]: 0.96 h
Tmax ([1]; brain, read-out: Brain Tmax): 0.25 h
Plasma/Brain Ratio [1]: 0.01
AUC(0-inf) ([1]; plasma): 4190 ng·h/mL
AUC(0-t) ([1]; plasma): 4120 ng·h/mL
half-life [1, 4]: 2.51 h
Tmax ([1]; plasma, read-out: Plasma Tmax): 0.25 h
Cmax ([1]; plasma): 3160 ng/mL

Structure (SMILES): CN1CCN(C2CCN(C(=O)c3ccc(-c4ccc5ncc(-c6ccc(C#N)cc6)n5c4)cc3)CC2)CC1 [Entry 4]
Brain AUC last ([1]; brain): 184 ng·h/g
Brain Cmax ([1]; brain): 20 ng/g
Tmax ([1]; brain, read-out: Brain Tmax): 8 h
Plasma/Brain Ratio [1]: 0.3
AUC(0-inf) ([1]; plasma): 632 ng·h/mL
AUC(0-t) ([1]; plasma): 614 ng·h/mL
half-life [1, 4]: 2.38 h
Tmax ([1]; plasma, read-out: Plasma Tmax): 0.25 h
Cmax ([1]; plasma): 223 ng/mL

Structure (SMILES): N#Cc1ccc(-c2cnc3ccc(-c4ccc(C(=O)N5CCOCC5)cc4)nn23)cc1 [Entry 5]
Brain AUC inf ([1]; brain): 8951 ng·h/g
Brain AUC last ([1]; brain): 8811 ng·h/g
Brain Cmax ([1]; brain): 1724 ng/g
half-life [1, 3]: 4.28 h
AUC(0-inf) ([1]; plasma): 76500 ng·h/mL
AUC(0-t) ([1]; plasma): 74700 ng·h/mL
half-life [1, 4]: 4.33 h
Cmax ([1]; plasma): 13400 ng/mL

Structure (SMILES): N#Cc1ccc(-c2cnc3ccc(-c4ccc(C(=O)N5CCNCC5)cc4)nn23)cc1 [Entry 6]
Brain AUC last ([1]; brain): 17 ng·h/g
Brain Cmax ([1]; brain): 10 ng/g
Tmax ([1]; brain, read-out: Brain Tmax): 0.25 h
Plasma/Brain Ratio [1]: 0.05
AUC(0-inf) ([1]; plasma): 359 ng·h/mL
AUC(0-t) ([1]; plasma): 350 ng·h/mL
half-life [1, 4]: 1.59 h
Tmax ([1]; plasma, read-out: Plasma Tmax): 0.25 h
Cmax ([1]; plasma): 275 ng/mL

Structure (SMILES): N#Cc1ccc(-c2cnc3ccc(-c4ccc(C(=O)N5CCOCC5)cc4)cn23)cc1 [Entry 7]
Brain AUC inf ([1]; brain): 2516 ng·h/g
Brain AUC last ([1]; brain): 2474 ng·h/g
Brain Cmax ([1]; brain): 678 ng/g
half-life [1, 3]: 2.05 h
Tmax ([1]; brain, read-out: Brain Tmax): 1 h
AUC(0-inf) ([1]; plasma): 26000 ng·h/mL
AUC(0-t) ([1]; plasma): 26000 ng·h/mL
half-life [1, 4]: 2.94 h
Tmax ([1]; plasma, read-out: Plasma Tmax): 0.25 h
Cmax ([1]; plasma): 7360 ng/mL

Structure (SMILES): CC1(N)CCN(C(=O)c2ccc(-c3ccc4ncc(-c5ccc(Cl)cc5)n4c3)cc2)CC1 [Example 173, (4-amino-4-methylpiperidin-1-yl)(4-(3-(4-chlorophenyl)imidazo [1,2-a]pyridin-6-yl)phenyl)methanone]
IC50 ([2]; HeLa, 2 h): < 1000 nM

Structure (SMILES): N#Cc1ccc(-c2cnn3ccc(-c4ccc(C(=O)N5CCCOCC5)cc4)nc23)cc1 [Example 181, 4-(5-(4-(1,4-oxazepane-4-carbonyl)phenyl)pyrazolo[1,5-a]pyrimidin-3-yl)benzonitrile]
IC50 [2, 5]: < 1000 nM

Structure (SMILES): N#Cc1ccc(-c2cnn3ccc(-c4ccc(C(=O)N5CCNCC5)cc4)nc23)cc1 [Example 183, 4-(5-(4-(piperazine-1-carbonyl)phenyl)pyrazolo[1,5-a]pyrimidin-3-yl)benzonitrile]
IC50 [2, 5]: < 1000 nM

Structure (SMILES): CC(=O)N1CCN(C(=O)c2ccc(-c3ccn4ncc(-c5ccc(C#N)cc5)c4n3)cc2)CC1 [Example 184]
IC50 [2, 5]: < 1000 nM

Structure (SMILES): N#Cc1ccc(-c2cnn3ccc(-c4ccc(C(=O)N5CCOCC5)cc4)nc23)cc1 [Example 185, 4-(5-(4-(morpholine-4-carbonyl)phenyl)pyrazolo [1,5-a]pyrimidin-3-yl)benzonitrile]
IC50 [2, 5]: < 1000 nM

Structure (SMILES): CC(=O)NC1CCN(C(=O)c2ccc(-c3ccn4ncc(-c5ccc(C#N)cc5)c4n3)cc2)CC1 [Example 186, N-(1-(4-(3-(4-cyanophenyl)pyrazolo[1,5-a]pyrimidin-5-yl)benzoyl)piperidin-4-yl)acetamide]
IC50 [2, 5]: < 1000 nM

Structure (SMILES): N#Cc1ccc(-c2cnn3ccc(-c4ccc(C(=O)N5CCOCC5)c(O)c4)nc23)cc1 [Example 187, 4-(5-(3-hydroxy-4-(morpholine-4-carbonyl)phenyl)pyrazolo [1,5-a]pyrimidin-3-yl)benzonitrile]
IC50 [2, 5]: < 1000 nM

Structure (SMILES): N#Cc1ccc(-n2cnc3ccc(-c4ccc(C(=O)N5CCOCC5)cc4)cc32)cc1 [Example 190, 4-(6-(4-(morpholine-4-carbonyl)phenyl)-1H-benzo[d]imidazol-1-yl)benzonitrile]
IC50 ([2]; HeLa, 2 h): < 1000 nM

Other lines, results leading:

IC50 [2, 5]: < 1000 nM
Structure (SMILES): CC(=O)Nc1cc(-c2ccc3ncc(-c4ccc(C#N)cc4)n3c2)ccc1C(=O)N1CCN(C)CC1 [Example 149, N-(5-(3-(4-cyanophenyl)imidazo[1,2-a]pyridin-6-yl)-2-(4-methylpiperazine-1-carbonyl)phenyl)acetamide]

IC50 [2, 5]: < 1000 nM
Structure (SMILES): CNc1cc(-c2ccc3ncc(-c4ccc(C#N)cc4)n3c2)ccc1C(=O)N1CCN(C)CC1 [Example 150, 4-(6-(3-(methylamino)-4-(4-methylpiperazine-1-carbonyl)phenyl)imidazo [1,2-a]pyridin-3-yl)benzonitrile]

IC50 [2, 5]: < 1000 nM
Structure (SMILES): CNc1cc(-c2ccc3ncc(-c4ccc(C#N)cc4)n3c2)ccc1C(=O)N1CCOCC1 [Example 151, 4-(6-(3-(methylamino)-4-(morpholine-4-carbonyl)phenyl)imidazo[1,2-a]pyridin-3-yl)benzonitrile]

IC50 [2, 5]: < 1000 nM
Structure (SMILES): CN1CCN(C(=O)c2ccc(-c3ccc4ncc(-c5ccc(C#N)cc5)n4c3)c(Cl)c2)CC1 [Example 153]

IC50 [2, 5]: < 1000 nM
Structure (SMILES): Cc1cc(-c2ccc3ncc(-c4ccc(C#N)cc4)n3c2)ccc1C(=O)N1CCOCC1 [Example 156]

IC50 [2, 5]: < 1000 nM
Structure (SMILES): CN1CCN(C(=O)c2ccc(-c3ccc4ncc(-c5ccc(C#N)cc5)n4c3)cc2OC(F)(F)F)CC1 [Example 157]

IC50 [2, 5]: < 1000 nM
Structure (SMILES): COc1cc(-c2ccc3ncc(-c4ccc(C#N)cc4)n3c2)ccc1C(=O)N1CCOCC1 [Example 158]

IC50 [2, 5]: < 1000 nM
Structure (SMILES): N#Cc1ccc(-c2cnc3ccc(-c4ccc(C(=O)N5CCNCC5)c(O)c4)cn23)cc1 [Example 159, 4-(6-(3-hydroxy-4-(piperazine-1-carbonyl)phenyl)imidazo[1,2-a]pyridin-3-yl)benzonitrile]

IC50 [2, 5]: < 1000 nM
Structure (SMILES): N#Cc1ccc(-c2cnc3ccc(-c4ccc(C(=O)N5CCOCC5)c(N5CCOCC5)c4)cn23)cc1 [Example 160, 4-(6-[3-(morpholin-4-yl)-4-(morpholin-4-ylcarbonyl)phenyl]imidazo[1,2-a]pyridin-3-yl)benzonitrile]

IC50 [2, 5]: < 1000 nM
Structure (SMILES): N#Cc1ccc(-c2cnc3ccc(-c4ccc(C(=O)N5CCOCC5)c(F)c4)cn23)cc1 [Example 162, 4-(6-(3-fluoro-4-(morpholine-4-carbonyl)phenyl)imidazo [1,2-a]pyridin-3-yl)benzonitrile]

IC50 [2, 5]: < 1000 nM
Structure (SMILES): CC1(N2CCOCC2)CCN(C(=O)c2ccc(-c3ccc4ncc(-c5ccc(C#N)cc5)n4c3)cc2)CC1 [Example 163, 4-(6-(4-(4-methyl-4-morpholinopiperidine-1-carbonyl)phenyl)imidazo [1,2-a]pyridin-3-yl)benzonitrile]

IC50 [2, 5]: < 1000 nM
Structure (SMILES): CN1CCN(C2(C)CCN(C(=O)c3ccc(-c4ccc5ncc(-c6ccc(C#N)cc6)n5c4)cc3)CC2)CC1 [Example 164, 4-(6-(4-(4-methyl-4-(4-methylpiperazin-1-yl)piperidine-1-carbonyl)phenyl)imidazo [1,2-a]pyridin-3-yl)benzonitrile]

IC50 [2, 5]: < 1000 nM
Structure (SMILES): N#Cc1ccc(-c2cnc3ccc(-c4ccc(C(=O)N5CCNCC5)cc4)cn23)cc1 [Example 165, 4-(6-(4-(piperazine-1-carbonyl)phenyl)imidazo [1,2-a]pyridin-3-yl)benzonitrile]

IC50 [2, 5]: < 1000 nM
Structure (SMILES): CC(=O)Nc1cc(-c2ccc3ncc(-c4ccc(C#N)cc4)n3c2)ccc1C(=O)N1CCOCC1 [Example 166, N-(5-(3-(4-cyanophenyl)imidazo[1,2-a]pyridin-6-yl)-2-(morpholine-4-carbonyl)phenyl)acetamide]

IC50 [2, 5]: < 1000 nM
Structure (SMILES): N#Cc1ccc(-c2cnc3ccc(-c4ccc(C(=O)N5CCOCC5)c(O)c4)cn23)cc1 [Example 167, 4-(6-(3-hydroxy-4-(morpholine-4-carbonyl)phenyl)imidazo[1,2-a]pyridin-3-yl)benzonitrile]

IC50 [2, 5]: < 1000 nM
Structure (SMILES): CNC1CCN(C(=O)c2ccc(-c3ccc4ncc(-c5ccc(C#N)cc5)n4c3)cc2NC(C)=O)CC1 [Example 169, N-(5-(3-(4-cyanophenyl)imidazo[1,2-a]pyridin-6-yl)-2-(4-(methylamino)piperidine-1-carbonyl)phenyl)acetamide]

IC50 [2, 5]: < 1000 nM
Structure (SMILES): CC(=O)Nc1cc(-c2ccc3ncc(-c4ccc(C#N)cc4)n3c2)ccc1C(=O)N1CCNCC1 [Example 170, N-(5-(3-(4-cyanophenyl)imidazo[1,2-a]pyridin-6-yl)-2-(piperazine-1-carbonyl)phenyl)acetamide]

IC50 [2, 5]: < 1000 nM
Structure (SMILES): COC1(C)CCN(C(=O)c2ccc(-c3ccc4ncc(-c5ccc(C#N)cc5)n4c3)cc2)CC1 [Example 172, 4-(6-(4-(4-methoxy-4-methylpiperidine-1-carbonyl)phenyl)imidazo[1,2-a]pyridin-3-yl)benzonitrile]

IC50 [2, 5]: < 1000 nM
Structure (SMILES): NC1CCN(C(=O)c2ccc(-c3ccc4ncc(-c5ccc(Cl)cc5)n4c3)cc2)CC1 [Example 174, (4-aminopiperidin-1-yl)(4-(3-(4-chlorophenyl)imidazo[1,2-a]pyridin-6-yl)phenyl)methanone]

IC50 [2, 5]: < 1000 nM
Structure (SMILES): CN1CCN(C2CCN(C(=O)c3ccc(-c4ccn5ncc(-c6ccc(C#N)cc6)c5n4)cc3)CC2)CC1 [Example 179, 4-(5-(4-(4-(4-methylpiperazin-1-yl)piperidine-1-carbonyl)phenyl)pyrazolo[1,5-a]pyrimidin-3-yl)benzonitrile]
